Values after ≈ are worked out from the molar mass of the structure shown.
Tests used:
Leishmania donovani = experiment: L. don amastigote mouse macrophage-based luciferase assay (CDRI); type: cell-based; settings: in mouse macrophages, single test (CDRI)
Leishmania infantum = experiment: L. inf growth inhibition in mouse macrophages (LMPH); type: cell-based; settings: Macrophage, mean of at least two determinations
Trypanosoma cruzi = experiment: T. cruzi growth inhibition on MRC-5 cells (LMPH); type: cell-based; settings: MRC5
[1] = tested on: human lung fibroblasts (MRC-5 cells); experiment: cytotoxicity toward MRC-5 cells (LMPH); type: cell-based; settings: MRC5
M. tb, strain H37Rv [2] = experiment: MABA minimum inhibitory concentration assay (aerobic); type: cell-based, Mycobacterium tuberculosis
M. tb, strain H37Rv [3] = experiment: LORA minimum inhibitory concentration assay (hypoxic); type: cell-based; settings: Mycobacterium tuberculosis
[4] = Mycobacterium tuberculosis, H37RV, aerobic, read-out: MIC MABA
[5] = Mycobacterium tuberculosis, H37RV, read-out: MIC MABA, aerobic

SMILES	IC50 (Leishmania donovani)	IC50 (Leishmania infantum)	IC50 (Trypanosoma cruzi)	IC50 [1]	MIC (M. tb, strain H37Rv [2]; [4])	MIC (M. tb, strain H37Rv [3])	MIC (M. tb, strain H37Rv [2]; [5])	MIC (M. tb, strain H37Rv [2]; aerobic, read-out: MIC MABA)
CC1(COCc2ccc(OC(F)(F)F)cc2)CCn2cc([N+](=O)[O-])nc2O1 (stereo not shown) [compound 21]	310 nM	300 nM	750 nM	> 64000 nM	0.55 µM (≈ 0.213 µg/mL)	3.3 µM (≈ 1.28 µg/mL)	–	–
O=[N+]([O-])c1cn2c(n1)OC(COCc1ccc(OCc3ccccc3)cc1)CC2 (stereo not shown) [compound 22]	50 nM	–	–	–	–	3 µM (≈ 1.19 µg/mL)	–	–
CC1(COCc2ccc(OCc3ccccc3)cc2)CCn2cc([N+](=O)[O-])nc2O1 (stereo not shown) [compound 23]	280 nM	–	–	–	0.2 µM (≈ 0.0819 µg/mL)	1.4 µM (≈ 0.573 µg/mL)	–	–
O=[N+]([O-])c1cn2c(n1)OC(COCc1ccc(-c3ccc(F)cc3)cc1)CC2 (stereo not shown) [compound 25, 7-{[(4′-Fluoro[1,1′-biphenyl]-4-yl)methoxy]methyl}-2-nitro-6,7-dihydro-5H-imidazo[2,1-b][1,3]oxazine]	20 nM	170 nM	530 nM	> 64000 nM	0.08 µM (≈ 0.0307 µg/mL)	1.3 µM (≈ 0.498 µg/mL)	–	–
CC1(COCc2ccc(-c3ccc(F)cc3)cc2)CCn2cc([N+](=O)[O-])nc2O1 (stereo not shown) [compound 27]	220 nM	1800 nM	840 nM	> 64000 nM	0.085 µM (≈ 0.0338 µg/mL)	0.61 µM (≈ 0.242 µg/mL)	–	–
CC1(COCc2ccc(-c3ccc(OC(F)(F)F)cc3)cc2)CCn2cc([N+](=O)[O-])nc2O1 (stereo not shown) [compound 29]	–	–	–	–	–	1.4 µM (≈ 0.649 µg/mL)	0.093 µM (≈ 0.0431 µg/mL)	–
C[C@]1(COCc2ccc(-c3ccc(OC(F)(F)F)cc3)cc2)CCn2cc([N+](=O)[O-])nc2O1 [compound 34, (7R)-7-Methyl-2-nitro-7-({[4′-(trifluoromethoxy)[1,1′-biphenyl]-4-yl]methoxy}methyl)-6,7-dihydro-5H-imidazo[2,1-b][1,3]oxazine]	240 nM	–	–	–	–	1.1 µM (≈ 0.51 µg/mL)	0.063 µM (≈ 0.0292 µg/mL)	–
C[C@@]1(COCc2ccc(-c3ccc(OC(F)(F)F)cc3)cc2)CCn2cc([N+](=O)[O-])nc2O1 [compound 38]	–	–	–	–	–	6.8 µM (≈ 3.15 µg/mL)	0.74 µM (≈ 0.343 µg/mL)	–
O=[N+]([O-])c1cn2c(n1)OC(COc1ccc(OC(F)(F)F)cc1)CC2 (stereo not shown) [compound 39]	40 nM	–	–	–	–	4.7 µM (≈ 1.69 µg/mL)	5.2 µM (≈ 1.87 µg/mL)	–
O=[N+]([O-])c1cn2c(n1)OC(COc1ccc(OCc3ccccc3)cc1)CC2 (stereo not shown) [compound 45]	20 nM	–	–	–	–	> 128 µM	> 128 µM	–
CC1(COc2ccc(OCc3ccccc3)cc2)CCn2cc([N+](=O)[O-])nc2O1 (stereo not shown) [compound 47]	120 nM	–	–	–	0.44 µM (≈ 0.174 µg/mL)	> 128 µM	–	–
CC1(COc2ccc(-c3ccc(F)cc3)cc2)CCn2cc([N+](=O)[O-])nc2O1 (stereo not shown) [compound 52]	200 nM	340 nM	350 nM	> 64000 nM	0.085 µM (≈ 0.0326 µg/mL)	1.4 µM (≈ 0.537 µg/mL)	–	–
O=[N+]([O-])c1cn2c(n1)OC(COc1ccc(-c3ccc(OC(F)(F)F)cc3)cc1)CC2 (stereo not shown) [compound 53]	60 nM	–	–	–	–	0.73 µM (≈ 0.318 µg/mL)	0.08 µM (≈ 0.0348 µg/mL)	–
CC1(COc2ccc(-c3ccc(OC(F)(F)F)cc3)cc2)CCn2cc([N+](=O)[O-])nc2O1 (stereo not shown) [compound 54]	520 nM	–	–	–	–	1.3 µM (≈ 0.584 µg/mL)	0.11 µM (≈ 0.0494 µg/mL)	–
CC1(COc2ccc(-c3ccc(F)nc3)cc2)CCn2cc([N+](=O)[O-])nc2O1 (stereo not shown) [compound 56]	120 nM	160 nM	300 nM	> 64000 nM	0.29 µM (≈ 0.111 µg/mL)	2.7 µM (≈ 1.04 µg/mL)	–	–
O=[N+]([O-])c1cn2c(n1)OC(COc1ccc(-c3ccc(F)cc3)cn1)CC2 (stereo not shown) [compound 59, 7-({[5-(4-Fluorophenyl)pyridin-2-yl]oxy}methyl)-2-nitro-6,7-dihydro-5H-imidazo[2,1-b][1,3]oxazine]	10 nM	–	–	–	–	< 0.25 µM	0.02 to 0.04 µM (≈ 0.00741 to 0.0148 µg/mL)	0.025 µM (≈ 0.00926 µg/mL)
CC1(COc2ccc(-c3ccc(F)cc3)cn2)CCn2cc([N+](=O)[O-])nc2O1 (stereo not shown) [compound 61]	90 nM	–	–	–	–	1 µM (≈ 0.384 µg/mL)	0.17 µM (≈ 0.0653 µg/mL)	–
CC1(COc2ccc(-c3ccc(F)cc3F)cn2)CCn2cc([N+](=O)[O-])nc2O1 (stereo not shown) [compound 63]	–	110 nM	210 nM	> 64000 nM	0.089 µM (≈ 0.0358 µg/mL)	2.5 µM (≈ 1.01 µg/mL)	–	–
O=[N+]([O-])c1cn2c(n1)OC(COc1ccc(-c3ccc(OC(F)(F)F)cc3)cn1)CC2 (stereo not shown) [compound 64]	50 nM	350 nM	120 nM	> 64000 nM	0.02 to 0.04 µM (≈ 0.00873 to 0.0175 µg/mL)	0.47 µM (≈ 0.205 µg/mL)	–	0.027 µM (≈ 0.0118 µg/mL)
CC1(COc2ccc(-c3ccc(OC(F)(F)F)cc3)cn2)CCn2cc([N+](=O)[O-])nc2O1 (stereo not shown) [compound 65]	260 nM	3800 nM	1000 nM	> 64000 nM	0.13 µM (≈ 0.0585 µg/mL)	5.3 µM (≈ 2.39 µg/mL)	–	–
CC1(COc2ccc(-c3ccc(F)cc3)nc2)CCn2cc([N+](=O)[O-])nc2O1 (stereo not shown) [compound 90]	650 nM	–	–	–	–	3.9 µM (≈ 1.5 µg/mL)	0.35 µM (≈ 0.135 µg/mL)	–
O=[N+]([O-])c1cn2c(n1)OC(COc1ccc(-c3ccc(F)cc3F)nc1)CC2 (stereo not shown) [compound 91]	20 nM	–	–	–	–	8.9 µM (≈ 3.46 µg/mL)	0.36 µM (≈ 0.14 µg/mL)	–

Source: publication PMC7722354, “7-Substituted 2-Nitro-5,6-dihydroimidazo[2,1-b][1,3]oxazines: Novel Antitubercular Agents Lead to a New Preclinical Candidate for Visceral Leishmaniasis” (Journal of Medicinal Chemistry, 2017)
